Measurements: ChEMBL document CHEMBL1201862, “PubChem BioAssay data set” (2004)
The source made the active and inactive calls.

Experiments:
[1] = NIH-3T3 fibroblast cytotoxicity, dose response, cytotoxicity control, cell-based, fluorescence, Alamar Blue, secondary assay (AID 2327); format: functional;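 also: NIH-3T3 mouse fibroblasts cultured with fluconazole at 8 µg/mL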
[2] = fluconazole-exposed Candida albicans growth modulators – fluorescence, retest, confirmation (AID 2467); format: functional, cell-based
[3] = target: T1, Heat shock factor protein 1 (Mus musculus, UniProt P38532); assay: enhancement of HSF1-driven luciferase signal – cell-based, NIH3T3, luminescence, dose retest, confirmation (AID 435004); format: functional;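 also: stress induced by proteasome inhibitor MG132 added 30 min after compound; luciferase reporter driven by HSF1 response element in NIH3T3 cells; actives raise luminescence as potentiators of the MG132 stress response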
T1 sequence (P38532 whole entry): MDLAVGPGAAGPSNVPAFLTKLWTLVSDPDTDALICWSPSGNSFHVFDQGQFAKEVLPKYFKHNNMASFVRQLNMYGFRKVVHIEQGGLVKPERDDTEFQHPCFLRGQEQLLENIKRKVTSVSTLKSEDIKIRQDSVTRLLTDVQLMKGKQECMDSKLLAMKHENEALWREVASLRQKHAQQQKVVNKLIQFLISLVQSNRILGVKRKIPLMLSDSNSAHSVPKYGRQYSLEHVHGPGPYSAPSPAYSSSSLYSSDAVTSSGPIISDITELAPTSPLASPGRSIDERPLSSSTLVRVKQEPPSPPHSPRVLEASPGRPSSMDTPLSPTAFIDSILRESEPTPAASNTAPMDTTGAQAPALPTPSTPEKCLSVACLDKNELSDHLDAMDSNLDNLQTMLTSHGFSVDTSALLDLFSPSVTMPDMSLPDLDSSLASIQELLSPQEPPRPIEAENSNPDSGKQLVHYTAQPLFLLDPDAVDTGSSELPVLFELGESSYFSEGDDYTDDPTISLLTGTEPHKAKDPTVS

[4] = target: T2, Microphthalmia-associated transcription factor (Homo sapiens, UniProt O75030); assay: reducers of TRPM1 reporter luminescence, concentration series – cell-based, SK-MEL-5, cherry-picked, set 3, MITF inhibitor project, dose response (AID 493073); format: functional;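 also: SK-MEL-5 melanoma cells with luciferase driven by the MITF target TRPM1 promoter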
T2 sequence (O75030 whole entry): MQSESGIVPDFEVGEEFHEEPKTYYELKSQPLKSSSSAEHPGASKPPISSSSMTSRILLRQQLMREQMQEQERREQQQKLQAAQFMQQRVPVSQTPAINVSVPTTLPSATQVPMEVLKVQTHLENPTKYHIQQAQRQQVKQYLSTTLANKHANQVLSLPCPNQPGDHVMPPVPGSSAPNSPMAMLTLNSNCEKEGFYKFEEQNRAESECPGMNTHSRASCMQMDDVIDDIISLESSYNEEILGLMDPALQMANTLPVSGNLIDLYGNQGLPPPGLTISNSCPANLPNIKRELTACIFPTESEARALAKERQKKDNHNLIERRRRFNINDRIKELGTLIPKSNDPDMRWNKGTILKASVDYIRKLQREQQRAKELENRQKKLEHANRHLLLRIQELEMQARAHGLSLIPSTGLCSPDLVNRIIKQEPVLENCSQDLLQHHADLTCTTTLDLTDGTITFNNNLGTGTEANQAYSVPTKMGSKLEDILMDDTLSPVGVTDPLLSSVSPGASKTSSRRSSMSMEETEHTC

[5] = target: T3, Polyadenylate-binding protein 1 (Homo sapiens, UniProt P11940); assay: MLLE binding blockers, Cy5 peptide tracer – biochemical, fluorescence polarization, Cy5-PAM2 peptide, secondary, miRNA deadenylation inhibitor project, dose response (AID 602260); format: functional; conditions: read-out: IC50_Mean
T3 sequence (P11940 whole entry): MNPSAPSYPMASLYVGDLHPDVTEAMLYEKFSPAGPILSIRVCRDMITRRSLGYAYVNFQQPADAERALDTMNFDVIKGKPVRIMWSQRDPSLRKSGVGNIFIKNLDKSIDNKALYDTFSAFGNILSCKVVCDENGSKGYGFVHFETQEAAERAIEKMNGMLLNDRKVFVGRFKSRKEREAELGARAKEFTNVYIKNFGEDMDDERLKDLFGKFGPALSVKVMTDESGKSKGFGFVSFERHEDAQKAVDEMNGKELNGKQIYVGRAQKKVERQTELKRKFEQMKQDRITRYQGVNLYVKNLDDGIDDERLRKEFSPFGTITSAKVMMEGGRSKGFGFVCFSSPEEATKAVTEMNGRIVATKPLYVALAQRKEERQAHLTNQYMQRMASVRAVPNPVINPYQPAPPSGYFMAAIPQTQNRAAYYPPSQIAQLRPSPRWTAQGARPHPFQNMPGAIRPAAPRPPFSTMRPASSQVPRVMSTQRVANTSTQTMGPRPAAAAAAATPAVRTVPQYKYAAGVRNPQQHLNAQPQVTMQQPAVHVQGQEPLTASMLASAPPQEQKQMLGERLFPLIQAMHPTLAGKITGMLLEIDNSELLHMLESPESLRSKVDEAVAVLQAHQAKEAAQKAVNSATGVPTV

[6] = reduction of Shn3 3'UTR-driven luciferase in osteoblasts – cell-based, Clone20 osteoblasts, firefly luciferase, cherry-picked, dose response (AID 624132); format: functional;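 also: firefly luciferase luminescence from reporter carrying the Shn3 3'UTR in osteoblasts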
[7] = target: T3, Polyadenylate-binding protein 1; assay: MLLE domain peptide-binding blockers, IC50 – biochemical, fluorescence polarization, FITC-PAM2 peptide, dose response (AID 602259); format: functional; conditions: read-out: IC50_Mean
[8] = loss of viability in HepG2 cells – cell-based, CellTiter-Glo, cherry-picked, cytotoxicity control for Shn3 inhibitor project, dose response (AID 624134); format: functional
[9] = non-specific 3'UTR reporter inhibition in Clone20-Shn3RL – cell-based, Renilla luciferase, cherry-picked, counter-screen for Shn3 inhibitor project, dose response (AID 624133); format: functional
[10] = test system: P388/ADR; assay: cells; format: functional; conditions: Mus musculus
[11] = test system: SN12K1; assay: cells; format: functional; conditions: Homo sapiens
[12] = test system: P388; assay: cells; format: functional; conditions: Mus musculus
[13] = target: T4, Fatty acid synthase (Homo sapiens, UniProt P49327); assay: inhibition of human FAS-TE enzyme activity – biochemical, endpoint fluorescence intensity, uHTS hits, dose response (AID 624327); format: functional;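 also: fluorescence from hydrolysis of an O-methyl fluorescein acyl ester substrate by the enzyme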
T4 sequence (P49327 whole entry): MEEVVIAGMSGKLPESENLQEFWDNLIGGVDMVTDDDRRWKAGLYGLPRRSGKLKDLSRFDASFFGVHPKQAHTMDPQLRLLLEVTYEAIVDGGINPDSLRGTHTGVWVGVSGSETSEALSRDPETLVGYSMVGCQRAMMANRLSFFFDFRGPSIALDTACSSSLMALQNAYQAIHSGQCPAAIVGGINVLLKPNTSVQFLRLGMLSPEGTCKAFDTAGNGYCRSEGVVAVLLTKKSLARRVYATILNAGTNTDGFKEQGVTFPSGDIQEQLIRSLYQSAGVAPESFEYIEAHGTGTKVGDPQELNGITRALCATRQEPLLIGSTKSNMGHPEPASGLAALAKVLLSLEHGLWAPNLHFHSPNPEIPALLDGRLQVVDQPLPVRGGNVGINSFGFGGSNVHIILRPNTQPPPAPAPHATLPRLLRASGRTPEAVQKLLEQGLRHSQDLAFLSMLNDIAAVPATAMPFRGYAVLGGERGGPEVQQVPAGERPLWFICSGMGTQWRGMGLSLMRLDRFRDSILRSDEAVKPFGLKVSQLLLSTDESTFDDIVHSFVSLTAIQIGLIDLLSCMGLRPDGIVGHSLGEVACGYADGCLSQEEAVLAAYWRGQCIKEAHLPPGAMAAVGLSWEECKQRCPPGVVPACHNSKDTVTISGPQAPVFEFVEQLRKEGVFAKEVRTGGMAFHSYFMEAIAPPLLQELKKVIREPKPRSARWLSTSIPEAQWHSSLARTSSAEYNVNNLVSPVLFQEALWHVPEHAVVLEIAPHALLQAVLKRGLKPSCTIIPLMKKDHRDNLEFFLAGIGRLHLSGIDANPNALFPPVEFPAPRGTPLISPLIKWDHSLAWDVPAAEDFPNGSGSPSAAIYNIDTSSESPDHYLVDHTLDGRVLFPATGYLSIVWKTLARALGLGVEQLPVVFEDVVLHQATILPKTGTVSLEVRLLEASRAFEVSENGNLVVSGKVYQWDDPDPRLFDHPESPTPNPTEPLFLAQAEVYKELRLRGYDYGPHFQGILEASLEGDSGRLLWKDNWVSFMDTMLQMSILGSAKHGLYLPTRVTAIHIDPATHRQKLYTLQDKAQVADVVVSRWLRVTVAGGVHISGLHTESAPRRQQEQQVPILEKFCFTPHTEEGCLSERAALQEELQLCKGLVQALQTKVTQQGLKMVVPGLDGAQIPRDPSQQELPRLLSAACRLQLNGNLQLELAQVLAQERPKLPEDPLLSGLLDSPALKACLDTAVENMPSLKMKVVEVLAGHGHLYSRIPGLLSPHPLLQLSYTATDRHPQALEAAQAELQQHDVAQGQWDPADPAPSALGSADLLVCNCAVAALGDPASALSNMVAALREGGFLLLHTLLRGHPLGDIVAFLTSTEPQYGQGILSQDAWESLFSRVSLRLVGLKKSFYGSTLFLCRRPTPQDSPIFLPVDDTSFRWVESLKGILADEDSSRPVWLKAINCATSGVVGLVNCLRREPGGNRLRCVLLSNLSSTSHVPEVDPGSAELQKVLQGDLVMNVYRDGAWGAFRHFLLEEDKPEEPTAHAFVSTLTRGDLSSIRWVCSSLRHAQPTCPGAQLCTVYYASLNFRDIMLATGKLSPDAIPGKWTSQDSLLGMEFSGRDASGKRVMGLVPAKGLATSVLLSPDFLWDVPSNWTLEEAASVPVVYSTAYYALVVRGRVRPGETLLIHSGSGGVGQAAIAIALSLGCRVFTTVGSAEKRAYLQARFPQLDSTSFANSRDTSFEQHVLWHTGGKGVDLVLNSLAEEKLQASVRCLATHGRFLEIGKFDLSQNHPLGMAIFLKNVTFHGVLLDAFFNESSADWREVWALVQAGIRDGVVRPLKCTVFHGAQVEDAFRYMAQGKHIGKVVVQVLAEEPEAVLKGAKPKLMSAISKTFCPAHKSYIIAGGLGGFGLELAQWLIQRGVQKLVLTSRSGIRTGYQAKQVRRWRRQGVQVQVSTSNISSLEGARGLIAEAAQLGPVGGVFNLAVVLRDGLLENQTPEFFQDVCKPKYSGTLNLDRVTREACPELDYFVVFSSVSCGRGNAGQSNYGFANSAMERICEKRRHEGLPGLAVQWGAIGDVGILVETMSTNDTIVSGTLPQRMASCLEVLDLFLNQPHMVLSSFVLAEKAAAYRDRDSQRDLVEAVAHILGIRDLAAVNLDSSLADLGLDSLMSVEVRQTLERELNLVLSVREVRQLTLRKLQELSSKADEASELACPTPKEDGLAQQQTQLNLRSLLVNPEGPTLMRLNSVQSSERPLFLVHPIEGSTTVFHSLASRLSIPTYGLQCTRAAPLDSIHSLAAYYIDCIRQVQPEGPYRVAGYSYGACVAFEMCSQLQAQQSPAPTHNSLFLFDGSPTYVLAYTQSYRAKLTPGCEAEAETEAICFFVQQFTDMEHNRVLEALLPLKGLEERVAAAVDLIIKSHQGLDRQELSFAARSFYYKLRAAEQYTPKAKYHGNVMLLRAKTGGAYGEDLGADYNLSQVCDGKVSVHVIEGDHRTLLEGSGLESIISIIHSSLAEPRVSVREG

[14] = target: T4, Fatty acid synthase; assay: inhibition of human FAS-TE enzyme activity – biochemical, kinetic fluorescence intensity, dose response (AID 624326); format: functional;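 also: rate of fluorescence rise from hydrolysis of a fluorogenic O-methyl fluorescein ester substrate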
[15] = viability of PTEN-deleted HCT116 cells – cell-based, HCT116 PTEN knockout, dose response (AID 1047); format: functional;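 also: HCT116 colon tumor cells with PTEN knocked out; cells exposed to compound for 60 hours before readout; potency for loss of cell viability measured by luminescence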
[16] = viability of HCT116 lacking mutant beta-catenin – cell-based, human colon tumor, dose response (AID 1045); format: functional;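 also: HCT116 colon tumor cells with beta catenin knocked out; cells exposed to compound for 60 hours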
[17] = target: Peroxisome proliferator-activated receptor gamma/Nuclear receptor coactivator 2 (Homo sapiens, UniProt P37231); format: functional;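 also: agonist potency for raising coactivator recruitment to the receptor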
[18] = target: Peroxisome proliferator-activated receptor gamma/Nuclear receptor coactivator 1 (Homo sapiens, UniProt P37231); format: functional;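 also: agonist potency as compounds enhance coactivator SRC-1 recruitment to PPARgamma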
[19] = target: Peroxisome proliferator-activated receptor gamma/Nuclear receptor coactivator 3 (Homo sapiens, UniProt P37231); format: functional;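 also: agonist potency for raising coactivator recruitment to the receptor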
[20] = test system: HEK293; assay: EBV LMP1 TES2 canonical NF-kB signalling blockers – cell-based, HEK293, luciferase, cherry-pick, dose response (AID 588343); format: functional; conditions: Homo sapiens
[21] = target: Nonstructural protein 1 (Influenza A virus, UniProt Q194T2); format: functional, Influenza A virus (A/California/07/2009(H1N1))
Chain of Nonstructural protein 1 (Q194T2 whole entry): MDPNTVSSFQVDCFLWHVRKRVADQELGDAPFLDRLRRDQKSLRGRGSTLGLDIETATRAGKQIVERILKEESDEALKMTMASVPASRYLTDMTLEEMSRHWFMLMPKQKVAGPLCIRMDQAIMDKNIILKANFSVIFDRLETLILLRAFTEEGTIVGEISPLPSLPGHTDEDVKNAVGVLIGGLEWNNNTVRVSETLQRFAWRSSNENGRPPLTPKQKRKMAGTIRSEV

[22] = test system: INS1; assay: INS-1E survival protection against cytokine death – cell-based, luminescence, retest, dose response (AID 449756); format: functional; conditions: Rattus norvegicus;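 also: cell death triggered by IL-1 beta plus TNF-alpha plus IFN-gamma mixture; protective hits raise ATP signal compared with cytokine alone wells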
[23] = Trypanosoma cruzi growth suppression in host cells – NIH3T3 host cells, beta-gal luminescence, confirmation (AID 2044); format: functional, cell-based;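 also: intracellular parasites grown in NIH/3T3 mouse fibroblasts as host cells; luminescent beta-galactosidase reporter signal from transgenic T. cruzi replicating inside host cells; inhibitors lower the luminescence signal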
[24] = NIH3T3 cell viability loss – ATP luminescence, mouse fibroblasts, counter-screen, dose response (AID 2010); format: functional, cell-based;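 also: cells exposed to compound for about 90 hours before reading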
[25] = target: T5, Histone-lysine N-methyltransferase NSD2 (Homo sapiens, UniProt O96028); format: biochemical
T5 sequence (O96028 whole entry): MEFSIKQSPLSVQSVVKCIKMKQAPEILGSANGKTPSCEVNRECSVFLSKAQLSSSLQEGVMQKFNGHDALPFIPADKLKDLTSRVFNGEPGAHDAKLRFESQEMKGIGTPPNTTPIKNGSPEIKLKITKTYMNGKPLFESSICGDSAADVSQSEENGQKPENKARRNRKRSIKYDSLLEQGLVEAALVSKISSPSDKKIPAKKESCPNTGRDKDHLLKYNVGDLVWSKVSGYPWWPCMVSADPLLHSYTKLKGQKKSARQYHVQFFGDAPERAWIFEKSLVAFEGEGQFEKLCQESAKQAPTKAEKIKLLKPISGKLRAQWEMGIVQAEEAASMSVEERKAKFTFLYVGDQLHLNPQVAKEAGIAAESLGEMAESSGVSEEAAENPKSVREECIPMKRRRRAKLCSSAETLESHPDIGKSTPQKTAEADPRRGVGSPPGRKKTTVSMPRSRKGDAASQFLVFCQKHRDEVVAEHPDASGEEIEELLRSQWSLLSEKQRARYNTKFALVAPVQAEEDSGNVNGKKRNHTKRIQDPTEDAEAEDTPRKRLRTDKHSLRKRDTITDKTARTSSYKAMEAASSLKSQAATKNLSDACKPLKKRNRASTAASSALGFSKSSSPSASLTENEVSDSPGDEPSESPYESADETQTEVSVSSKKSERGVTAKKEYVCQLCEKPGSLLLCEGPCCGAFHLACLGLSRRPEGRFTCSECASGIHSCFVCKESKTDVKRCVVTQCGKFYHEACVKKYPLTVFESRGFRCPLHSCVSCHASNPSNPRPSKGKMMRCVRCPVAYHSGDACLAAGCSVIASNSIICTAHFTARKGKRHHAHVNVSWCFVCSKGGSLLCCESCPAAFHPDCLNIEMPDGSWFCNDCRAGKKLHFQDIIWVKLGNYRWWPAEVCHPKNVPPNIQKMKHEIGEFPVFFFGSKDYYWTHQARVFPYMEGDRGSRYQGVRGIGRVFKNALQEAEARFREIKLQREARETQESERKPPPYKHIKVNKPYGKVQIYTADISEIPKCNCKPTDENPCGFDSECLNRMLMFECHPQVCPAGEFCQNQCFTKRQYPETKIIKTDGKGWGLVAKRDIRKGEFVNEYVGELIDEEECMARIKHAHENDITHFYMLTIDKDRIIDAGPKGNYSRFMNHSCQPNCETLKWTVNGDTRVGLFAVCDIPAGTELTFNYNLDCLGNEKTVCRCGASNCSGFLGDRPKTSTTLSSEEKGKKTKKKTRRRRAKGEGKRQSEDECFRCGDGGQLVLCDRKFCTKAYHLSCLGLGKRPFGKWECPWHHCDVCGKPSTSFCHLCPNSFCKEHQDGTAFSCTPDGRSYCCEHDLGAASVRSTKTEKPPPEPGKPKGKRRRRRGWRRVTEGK

## Cc1cc(Sc2ncnc(N)c2[N+](=O)[O-])ncn1
[1]
  EC50: 2.67 µM (inconclusive)
[2]
  EC50: 0.58 µM (active)
[3]
  EC50: 12.2 µM (active)
[4]
  AC50: 7.61 µM (active)
[5]
  IC50: > 66 µM (inactive)
[6]
  AC50: 5.7 µM (active)
[7]
  IC50: > 66 µM (inactive)
[8]
  AC50: 30.1 µM (active)
[9]
  AC50: 7.76 µM (active)

## CCCCCCCCCCCCCCCCCCOCC(COCCOCC[N+]1(CCCCCC(=O)[O-])CCCC1)Oc1ncccn1 (stereo not given)
[10]
  GI50: 11.2 µM (inactive)
[11]
  GI50: 4.12 µM (inactive)
[12]
  GI50: 0.288 µM (active)

## O=C(NCCCCc1ccccc1)C1CC(c2cccc([N+](=O)[O-])c2)=NO1 (stereo not given)
[13]
  IC50: 3.11 µM (active)
[14]
  IC50: 4.27 µM (active)

## Cc1c2ccncc2cc2c1[nH]c1ccccc12
[10]
  GI50: 2.93 µM (inactive)
[11]
  GI50: 3.72 µM (inactive)
[12]
  GI50: 1.61 µM (inactive)

## Cc1ccc([N+](=O)[O-])cc1NC(=O)CN(C(=O)c1ccc(Cl)cc1)C1CCCCC1
[15]
  EC50: 43.7 µM (active)
[16]
  EC50: 209 µM (active)
[13]
  IC50: 1.18 µM (active)
[14]
  IC50: 1.24 µM (active)

## CC(=O)Nc1ccc(NC(=O)c2ccccc2S(=O)(=O)c2ccc([N+](=O)[O-])cc2)cc1
[13]
  IC50: 13.8 µM (active)
[14]
  IC50: 15.9 µM (active)

## CCCCOc1ccc(NC2=NC3(CCCC3)N=C(N)N2)cc1
[17]
  EC50: > 79.4 µM (not active)
[18]
  EC50: > 79.4 µM (not active)
[19]
  EC50: > 79.4 µM (not active)

## CCn1c2ccccc2c2cc(/C=N/NC(=O)c3ccncc3)ccc21
[20]
  AC50: 1.46 µM (active)

## COc1cc(C(=O)Oc2c(CN3CCOCC3)cc(Cl)c3cccnc23)cc(OC)c1OC
[1]
  EC50: > 160 µM (inactive)
[2]
  EC50: 4.15 µM (active)
[15]
  EC50: 2.71 µM (active)
[16]
  EC50: 2.31 µM (active)
[21]
  IC50: 19.9 µM (active)
[4]
  AC50: 7.55 µM (active)
[22]
  AC50: 4.28 µM (active)

## O=C(NCCOc1ccccc1)c1ccc2c(c1)OCO2
[20]
  AC50: 1.62 µM (active)

## Cc1c2ccnc(C(N)=O)c2c(C)c2c1[nH]c1ccccc12
[10]
  GI50: 12.9 µM (inactive)
[11]
  GI50: 5.46 µM (inactive)
[12]
  GI50: 2.9 µM (inactive)

## NCCc1c(-c2ccccc2)n(-c2ccccc2)c2ccccc12
[23]
  EC50: 2.47 µM (active)
[24]
  EC50: > 60 µM (inconclusive)
[25]
  AC50: > 20 µM (inactive)

## C/C(=C\COc1ccc2ccc(=O)oc2c1)C1=CC(=O)C(C)(C)O1 [GEIPARVARIN]
[10]
  GI50: 1.44 µM (inactive)
[11]
  GI50: 3.76 µM (inactive)
[12]
  GI50: 1.9 µM (inactive)

## CC[C@]1(c2cccc(C)c2)C(=O)N(C(=O)OC)N1C(=O)OC
[13]
  IC50: 9.04 µM (active)
[14]
  IC50: 8.6 µM (active)

## CCN1CC2CCCC3(C1)C(=O)NC1(CCCCC1)N=C23 (stereo not given)
[25]
  AC50: 15 µM (active)

## COc1ccc(C2COc3cc(O)c(O)cc3C2)cc1 (stereo not given)
[10]
  GI50: 1.19 µM (inactive)
[11]
  GI50: 13.8 µM (inactive)
[12]
  GI50: 1.67 µM (inactive)

## COC1OC(=O)[C@H]2O[N+]([O-])=C(C)[C@@H]12 (stereo not given in full)
[10]
  GI50: > 100 µM (inactive)
[11]
  GI50: > 100 µM (inactive)
[12]
  GI50: > 100 µM (inactive)

## CSc1ccccc1C(=O)N1CCC2(CC1)CC(=O)c1ccccc1O2
[20]
  AC50: 22.5 µM (active)

## CC(C)(C)SCCNC(=O)/C=C/c1cccc([N+](=O)[O-])c1
[13]
  IC50: 4.09 µM (active)
[14]
  IC50: 6.29 µM (active)

## NC1CCCCC1.O=P(O)(O)C(CSc1ccccc1)P(=O)(O)O
[10]
  GI50: > 100 µM (inactive)
[11]
  GI50: > 100 µM (inactive)
[12]
  GI50: > 100 µM (inactive)

## CCOc1ccc(/C=N/Nc2cc(N3CCOCC3)ncn2)c(O)c1
[20]
  AC50: 15.5 µM (active)
